Experimental data reported in article PMC6524640 (Biochimica et biophysica acta. Biomembranes, 2019).
No end group written: not given here.

Target: Ca2+/CaM (Homo sapiens, UniProt P0DP23)
Assay type: binding

| Substance | Kd [µM] | KD from titration to 15N-labeled Ca2+/CaM (result in words) (nanodisc free solution, same conditions as the SFWT peptide) |
| --- | --- | --- |
| HAGKTGSSGPLQ [SFFA] | 0.27 |  |
| HFGKpTGSSGPLQ [pSFWT] |  | did not reach saturation |
| HFGKTGAASDQR [LFRA] | 750 |  |
